Where “and” joins values, the source holds several entries; their conditions need not be identical. Identical values can stand only once.
Molecular target: PcrV (Pseudomonas aeruginosa, UniProt G3XD49)
Experiment: SPR dose-response binding to immobilized PcrV (equilibrium analysis)
Conditions: KD ± standard error of KD (Table S1), single experiment; standard error from ProteOn Manager software
Protocol: The SPR screening was performed using the ProteOn^TM XPR36 Protein Interaction Array System (Bio-Rad Laboratories Inc., Hercules, CA, USA) with ProteOn GLH sensor chip (Bio-Rad Laboratories Inc., Hercules, CA, USA), and the results were analyzed with the ProteOn Manager software^TM (Bio-Rad Laboratories Inc., Hercules, CA, USA), Excel 2016 (Microsoft Office), and GraphPad Prism 7.04. All SPR experiments were performed at 25 °C. The multichannel module of the ProteOn system was in the vertical position during protein immobilization. The proteins were attached to the surface of a GLH sensor chip via amine coupling chemistry. A buffer scouting was performed to elucidate the optimal binding conditions of PcrV to the GLH sensor chip. First, channels 1–4 on the chip surface were activated using a 1:1 mixture of 40 mM 1-ethyl-3-(3-dimethylaminopropyl)carbodiimide hydrochloride (EDAC) (Bio-Rad Laboratories Inc., Hercules, CA, USA) and 10 mM N-hydroxysulfosuccinimide (sulfo-NHS, Bio-Rad Laboratories Inc., Hercules, CA, USA) for 300 s at 30 µL/min. Next, the proteins PcrV (33,398.6 Da, 6.37 mg/mL) was diluted in 10 mM NaOAc (pH 4, 4.5, and 5) to 0.05 mg/mL. PcrV was immobilized in channel 1–3 for 540 s at 30 µL/min. Channel 4 was flushed with 10 mM NaOAc (pH 5) for 540 s at 30 µL/min. As deactivating agent, a 1:1 mixture of 1 M ethanolamine and milli-Q filtered water was used. The deactivating solution was injected over all four channels for 300 s at 30 µL/min. Phosphate buffered saline with Tween (PBST; 10 mM phosphate buffer pH 7.4, 140 mM NaCl, 2.7 mM KCl, and 0.05% Tween 20) was used as the running buffer. The final amount of immobilized protein was measured in resonance units (RU) relative to the signal of the baseline prior activation. […] Immobilization of PcrV diluted in sodium acetate of pH 4.5 in one channel and of pH 5 in one channel were used in the beginning of the screening procedure (for plate 1–26). Since no difference was found between the two pH values, the PcrV protein was diluted in sodium acetate at pH 5 only (in two channels) from plate 27 and the rest of the screen. The immobilization procedure for the screening was performed as described above with the addition that the control protein carbonic anhydrase isoenzyme II from bovine erythrocytes (CAII, Sigma-Aldrich, article number 2522) was immobilized in one channel that was activated and deactivated as described above. CAII (1 mg/mL in PBS) was deactivated when diluted in 10 mM sodium acetate (pH 4) to 0.05 mg/mL. Immobilization level of the deactivated CAII was 18,000 RU. Deactivated CAII was used as a control protein according to the recommendations by the ProteOn manufacturer (Bio-Rad Laboratories Inc., Hercules, CA, USA). As running buffer, we employed PBS (pH 7.4, 0.05% Tween 20).
First, the PcrV protein was immobilized in two channels as described above while keeping a blank channel which was activated and deactivated as described above. The multichannel module of the ProteOn system was in horizontal position during the small molecule interaction studies. They were serially diluted to (400,) 200, 100, 50, 25, 12.5, 6.25, and (3.125); or 100, 50, 25, and 12.5 µM; or 100, 66.7, 44.4, 29.6, 19.7, and 13.2 µM in PBST (0.05% Tween 20) with a total concentration of 5% DMSO in 96-well plates. The running buffer was PBST (0.05% Tween 20) containing 5% DMSO. The analytes were injected at a flowrate of 100 µL/min, contact time was 60 s, and dissociation time was 60–120 s. Solvent correction was performed continuously during the experiments to account for bulk response of DMSO. The data was then baseline-aligned, processed by channel referencing with the blank channel, and solvent-corrected. The equilibrium dissociation constant (KD) values were determined from equilibrium analysis in the ProteOn Manager software^TM. Solubility problems frequently hampered KD determination since the small molecules could not always be dissolved in concentrations high enough to reach a plateau. […]

PcrV, sequence (G3XD49 entry or part of it): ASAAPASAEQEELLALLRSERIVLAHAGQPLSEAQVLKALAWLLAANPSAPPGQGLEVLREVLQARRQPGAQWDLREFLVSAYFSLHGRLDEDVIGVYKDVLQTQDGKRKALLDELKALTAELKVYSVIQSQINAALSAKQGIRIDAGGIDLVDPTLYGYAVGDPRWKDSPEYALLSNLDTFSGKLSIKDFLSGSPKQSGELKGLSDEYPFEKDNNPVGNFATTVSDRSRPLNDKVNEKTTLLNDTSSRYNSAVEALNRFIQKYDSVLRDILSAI

SMILES | Kd [µM]
Cc1c(Br)ccc(OCCCC(=O)N2CCC(C(=O)O)CC2)c1C [Compound 23] | 94.1 ± 31
CNC(=O)CCCOc1ccc(Br)c(C)c1C [Compound 19] | 177 ± 31.6
Cc1c(Br)ccc(OCCCc2ccccc2C(=O)O)c1C [Compound 30] | 149 ± 27
O=C(O)CCCOc1ccc(Cl)cc1Cl [Compound 1] | 124 ± 53
Cc1c(Br)ccc(OCCCC(N)=O)c1C [Compound 18] | 32.9 ± 5
Cc1c(Br)ccc(OCCCC(=O)NS(=O)(=O)c2ccccc2)c1C [Compound 27] | 116 ± 18

Same assay, conditions: SPR KD, equilibrium analysis; mean ± SD of three or more independent experiments, individual values where n < 3; 25 °C, PBST 5% DMSO

SMILES | Kd
Cc1c(Br)ccc(OCCCC(=O)N2CCC(C(=O)O)CC2)c1C [Compound 23] | 94 µM and 103 µM
CNC(=O)CCCOc1ccc(Br)c(C)c1C [Compound 19] | 121 ± 45 µM
O=C(O)CCCOc1cc(Cl)ccc1Oc1ccc(Cl)cc1Cl [Compound 17] | 536 µM
Cc1c(Br)ccc(OCCCc2ccccc2C(=O)O)c1C [Compound 30] | 113 ± 31 µM
O=C(O)CCCOc1ccc(Cl)cc1Cl [Compound 1] | < 127 µM and 95 µM
Cc1c(Br)ccc(OCCCC(N)=O)c1C [Compound 18] | 42 ± 12 µM
Cc1c(Br)ccc(OCCCCO)c1C [Compound 28] | 127 µM and 351 µM
Cc1c(Br)ccc(OCCCC(=O)NS(=O)(=O)c2ccccc2)c1C [Compound 27] | 118 ± 62 µM

Same assay, conditions: dose-response SPR

SMILES | Binding to PcrV in SPR (in words)
CNC(=O)CCCOc1ccc(Br)c(C)c1C [Compound 19] | improved or similar binding affinity
Cc1c(Br)ccc(OCCCC(N)=O)c1C [Compound 18] | improved or similar binding affinity

Tested on: J774 cells infected with P. aeruginosa strain PAK
Experiment: cells
Format: cell-based, Pseudomonas aeruginosa
Conditions: Pseudomonas aeruginosa, J774, compound 25 µM; uninfected control = 100%, infected control = 0%; read-out: Viability Assay (% of Uninfected Control) 25 µM
Protocol: (§1) The cell viability assay was performed essentially as described before. J774 cells were seeded in 96-well micro-titer plates (Nunc), 100 µL/well, to a final number of 50,000 cells/well in Dulbecco’s modified Eagle’s medium (DMEM) with glutamax (Merck) supplemented with 10% fetal calf serum (FCS) and 3 µg/mL gentamicin and incubated for 16-18 h. Overnight cultures of the P. aeruginosa strains PAK and PAKpcrV [10] were grown in Luria Broth (LB) on a rotary shaker at 220 rpm at 37 °C. Prior to infection, the bacteria were diluted 1:10 in DMEM + glutamax and incubated for 1 h at 37 °C (shaking). The J774 cells were washed once with PBS, then 30 µL of DMEM with glutamax and 10% FCS supplemented with the potential binders at concentrations of 50, 100, 200, and 400 µM were added to the wells in triplicates. The infection was initiated by adding 30 µL of the diluted bacterial solutions (where the OD600 had been diluted to 0.0008) to each well to initiate infection. This infection results in a final bacterial concentration of OD600 = 0.0004 and a multiplicities of infection (MOI) of approximately 8, with final concentrations of the compounds at 25, 50, 100, and 200 µM in 60 µL of DMEM + glutamax and 5% FCS. In the primary screening, the compounds were run at one concentration (100 µM) in duplicates. As an infection control, the wild-type strain PAK with 1% DMSO was added, and as a positive control, PAKpcrV with 1% DMSO was added into four wells each. After 3 h and 30 min, 10 µL of UptiBlue Viable Cell Counting Kit (Interchime, France) was added to all wells. The infection was followed under the light microscope and the fluorescence (excitation 535 nm and emission 595 nm) was measured at 4, 5, and 6 h in a microplate reader (Synergy™ H4, Biotek). The results were calculated as percentage of living cells compared to uninfected control, where the uninfected control was set to 100% living cells and the infected control was set to 0% living cells. As a control, compounds were added to uninfected cells in a parallel experiment and viability was calculated as above to screen for cell toxicity. A compound was considered toxic if the viability was <80% of the uninfected control after 6 h of incubation and if a visual change of cell morphology was observed by microscopy. Z’ was calculated for each plate to ensure good quality throughout the screening. Only results from plates with a Z’ > 0.4 were counted. Standard deviation was calculated with Gaussian approximation when appropriate and shown as error bars in Figure 3C and Figure 4A.
The T3SS is important for P. aeruginosa infection of eukaryotic cells, and a T3SS activator mutant or a mutant lacking the T3SS tip protein PcrV are not able to infect eukaryotic cells. The macrophage cell line, J774, was infected with the wild-type P. aeruginosa strain PAK, and the potential PcrV binders were added to the wells at a final concentration of 100 µM to screen for inhibition of infection. The T3SS-mediated cytotoxic effect on the eukaryotic cells was measured by using a viability staining method (Uptiblue, Interchim), and the results were measured after 4, 5, and 6 h of infection. The pcrV-mutant (PAKpcrV), which is not able to infect macrophages due to deletion of the PcrV protein, was used as a control.

SMILES | viability at 25 µM [%]
Cc1c(Br)ccc(OCCCC(=O)N2CCC(C(=O)O)CC2)c1C [Compound 23] | 17
O=C(O)CCCOc1cc(Cl)ccc1Oc1ccc(Cl)cc1Cl [Compound 17] | 10
Cc1c(Br)ccc(OCCCc2ccccc2C(=O)O)c1C [Compound 30] | 16
O=C(O)CCCOc1ccc(Cl)cc1Cl [Compound 1] | 14
Cc1c(Br)ccc(OCCCC(=O)NS(=O)(=O)c2ccccc2)c1C [Compound 27] | 13

Same assay, conditions: Pseudomonas aeruginosa, J774, compound 50 µM; uninfected control = 100%, infected control = 0%; read-out: Viability Assay (% of Uninfected Control) 50 µM

SMILES | viability at 50 µM [%]
Cc1c(Br)ccc(OCCCC(=O)N2CCC(C(=O)O)CC2)c1C [Compound 23] | 18
O=C(O)CCCOc1cc(Cl)ccc1Oc1ccc(Cl)cc1Cl [Compound 17] | 3
Cc1c(Br)ccc(OCCCc2ccccc2C(=O)O)c1C [Compound 30] | 25
O=C(O)CCCOc1ccc(Cl)cc1Cl [Compound 1] | 12
Cc1c(Br)ccc(OCCCC(=O)NS(=O)(=O)c2ccccc2)c1C [Compound 27] | 15

Same assay, conditions: Pseudomonas aeruginosa, J774, compound 100 µM; uninfected control = 100%, infected control = 0%; read-out: Viability Assay (% of Uninfected Control) 100 µM

SMILES | viability at 100 µM [%]
Cc1c(Br)ccc(OCCCC(=O)N2CCC(C(=O)O)CC2)c1C [Compound 23] | 20
O=C(O)CCCOc1cc(Cl)ccc1Oc1ccc(Cl)cc1Cl [Compound 17] | 7
Cc1c(Br)ccc(OCCCc2ccccc2C(=O)O)c1C [Compound 30] | 21
O=C(O)CCCOc1ccc(Cl)cc1Cl [Compound 1] | 21
Cc1c(Br)ccc(OCCCC(=O)NS(=O)(=O)c2ccccc2)c1C [Compound 27] | 25

Same assay, conditions: Pseudomonas aeruginosa, J774, compound 200 µM; uninfected control = 100%, infected control = 0%

SMILES | viability at 200 µM [%]
Cc1c(Br)ccc(OCCCC(=O)N2CCC(C(=O)O)CC2)c1C [Compound 23] | 9
O=C(O)CCCOc1cc(Cl)ccc1Oc1ccc(Cl)cc1Cl [Compound 17] | -2
Cc1c(Br)ccc(OCCCc2ccccc2C(=O)O)c1C [Compound 30] | -16
O=C(O)CCCOc1ccc(Cl)cc1Cl [Compound 1] | 16
Cc1c(Br)ccc(OCCCC(=O)NS(=O)(=O)c2ccccc2)c1C [Compound 27] | -6

Tested on: not listed separately
Experiment: Cell toxicity control: compounds added to uninfected J774 cells
Format: cell-based
Conditions: mouse, uninfected J774 macrophage cells; read-out: Eukaryotic cell toxicity (viability compared to DMSO control)
Protocol: as §1

SMILES | viability at 6 h [%]
CNC(=O)CCCOc1ccc(Br)c(C)c1C [Compound 19] | < 80
Cc1c(Br)ccc(OCCCC(N)=O)c1C [Compound 18] | < 80

Tested on: uninfected J774 cells
Experiment: as above
Format: cell-based
Conditions: compound 25 µM; 6 h incubation
Protocol: as §1

SMILES | Toxicity towards eukaryotic cells, 25 µM
CNC(=O)CCCOc1ccc(Br)c(C)c1C [Compound 19] | Toxic ^e (<80% viability compared to the DMSO control)
Cc1c(Br)ccc(OCCCC(N)=O)c1C [Compound 18] | Toxic ^e (<80% viability compared to the DMSO control)
Cc1c(Br)ccc(OCCCCO)c1C [Compound 28] | Toxic ^e (<80% viability compared to the DMSO control)

Same assay, conditions: compound 50 µM; 6 h incubation

SMILES | Toxicity towards eukaryotic cells, 50 µM
CNC(=O)CCCOc1ccc(Br)c(C)c1C [Compound 19] | Toxic ^e (<80% viability compared to the DMSO control)
Cc1c(Br)ccc(OCCCC(N)=O)c1C [Compound 18] | Toxic ^e (<80% viability compared to the DMSO control)
Cc1c(Br)ccc(OCCCCO)c1C [Compound 28] | Toxic ^e (<80% viability compared to the DMSO control)

Same assay, conditions: compound 100 µM; 6 h incubation

SMILES | Toxicity towards eukaryotic cells, 100 µM
CNC(=O)CCCOc1ccc(Br)c(C)c1C [Compound 19] | Toxic ^e (<80% viability compared to the DMSO control)
Cc1c(Br)ccc(OCCCC(N)=O)c1C [Compound 18] | Toxic ^e (<80% viability compared to the DMSO control)
Cc1c(Br)ccc(OCCCCO)c1C [Compound 28] | Toxic ^e (<80% viability compared to the DMSO control)

Same assay, conditions: compound 200 µM; 6 h incubation

SMILES | Toxicity towards eukaryotic cells, 200 µM
Cc1c(Br)ccc(OCCCC(=O)N2CCC(C(=O)O)CC2)c1C [Compound 23] | b (The compound is toxic^e towards eukaryotic cells, which might affect the results negatively)
CNC(=O)CCCOc1ccc(Br)c(C)c1C [Compound 19] | Toxic ^e (<80% viability compared to the DMSO control)
O=C(O)CCCOc1cc(Cl)ccc1Oc1ccc(Cl)cc1Cl [Compound 17] | b (The compound is toxic^e towards eukaryotic cells, which might affect the results negatively)
Cc1c(Br)ccc(OCCCc2ccccc2C(=O)O)c1C [Compound 30] | b (The compound is toxic^e towards eukaryotic cells, which might affect the results negatively)
O=C(O)CCCOc1ccc(Cl)cc1Cl [Compound 1] | b (The compound is toxic^e towards eukaryotic cells, which might affect the results negatively)
Cc1c(Br)ccc(OCCCC(N)=O)c1C [Compound 18] | Toxic ^e (<80% viability compared to the DMSO control)
Cc1c(Br)ccc(OCCCCO)c1C [Compound 28] | Toxic ^e (<80% viability compared to the DMSO control)
Cc1c(Br)ccc(OCCCC(=O)NS(=O)(=O)c2ccccc2)c1C [Compound 27] | b (The compound is toxic^e towards eukaryotic cells, which might affect the results negatively)

Reference: paper PMC7824769, “Identification of Small Molecules Blocking the Pseudomonas aeruginosa Type III Secretion System Protein PcrV” (Biomolecules, 2021)
